Source: ChEMBL document CHEMBL5380860, “Design, Synthesis, and Antitumor Activity of Potent and Selective EGFR L858R/T790M Inhibitors and Identification of a Combination Therapy to Overcome Acquired Resistance in Models of Non-small-cell Lung Cancer” (J Med Chem, 2023)
pIC50: −log10 of the molar value. Active and inactive are the calls of the source. The calls are words filed in the database; no cut-off is given here.

What was measured:
Mus musculus [1] = assay: In vivo inhibition of EGFR L858R/T790M mutant in NCI-H1975 cells xenografted BALB/c mouse assessed as inhibition of EGFR phosphorylation at Tyr1068 residue in tumor at 20 mg/kg/day, ip by immunoblot analysis; format: functional, organism-based
Mus musculus [2] = assay: In vivo inhibition of EGFR L858R/T790M mutant in NCI-H1975 cells xenografted BALB/c mouse assessed as inhibition of AKT phosphorylation at Ser473 residue in tumor at 20 mg/kg/day, ip by immunoblot analysis; format: functional, organism-based
[3] = target: T1, Epidermal growth factor receptor (Homo sapiens, UniProt P00533); assay: Inhibition of wild type EGFR in human A549 cells assessed as inhibition of EGF-induced EGFR phosphorylation at Tyr1068 residue at 10 uM pretreated with compound for 4 hrs followed by incubation with EGF for 10 mins by western blot analysis; format: toxicity, cell-based; conditions: a549, 4.167 h, time 250 min
T1 sequence (P00533 whole entry): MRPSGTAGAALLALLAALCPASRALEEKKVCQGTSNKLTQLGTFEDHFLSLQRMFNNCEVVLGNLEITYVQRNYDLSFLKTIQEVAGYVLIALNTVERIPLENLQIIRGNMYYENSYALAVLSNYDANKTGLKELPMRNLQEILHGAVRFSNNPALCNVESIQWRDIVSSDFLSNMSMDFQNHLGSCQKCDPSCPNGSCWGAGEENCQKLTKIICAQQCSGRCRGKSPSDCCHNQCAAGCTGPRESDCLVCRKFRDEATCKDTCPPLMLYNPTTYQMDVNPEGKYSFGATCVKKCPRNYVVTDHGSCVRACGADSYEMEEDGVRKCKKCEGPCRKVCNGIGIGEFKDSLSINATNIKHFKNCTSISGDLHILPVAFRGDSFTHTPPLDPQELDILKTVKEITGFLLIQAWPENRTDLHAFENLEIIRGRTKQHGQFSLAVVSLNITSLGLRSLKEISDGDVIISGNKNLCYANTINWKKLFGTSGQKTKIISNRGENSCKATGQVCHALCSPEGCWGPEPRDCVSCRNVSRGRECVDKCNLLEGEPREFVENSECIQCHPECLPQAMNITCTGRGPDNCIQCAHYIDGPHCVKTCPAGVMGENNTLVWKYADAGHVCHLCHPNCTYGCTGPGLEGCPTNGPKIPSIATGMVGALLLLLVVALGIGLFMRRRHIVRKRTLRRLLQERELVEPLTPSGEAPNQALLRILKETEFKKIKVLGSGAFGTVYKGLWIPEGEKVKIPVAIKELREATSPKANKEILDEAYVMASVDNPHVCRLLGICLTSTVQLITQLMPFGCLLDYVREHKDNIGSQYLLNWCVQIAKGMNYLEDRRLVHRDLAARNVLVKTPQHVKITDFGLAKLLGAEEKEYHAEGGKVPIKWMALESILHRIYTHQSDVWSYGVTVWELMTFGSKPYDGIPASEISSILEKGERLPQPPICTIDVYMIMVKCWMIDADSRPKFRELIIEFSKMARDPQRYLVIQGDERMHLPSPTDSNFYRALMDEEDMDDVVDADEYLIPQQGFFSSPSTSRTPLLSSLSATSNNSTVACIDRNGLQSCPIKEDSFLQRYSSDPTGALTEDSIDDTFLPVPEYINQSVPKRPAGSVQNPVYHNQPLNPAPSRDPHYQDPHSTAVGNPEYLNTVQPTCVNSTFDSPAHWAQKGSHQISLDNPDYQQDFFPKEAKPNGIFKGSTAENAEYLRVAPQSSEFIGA

[4] = Toxicity in BALB/c mouse xenografted with N-(3-((6-Fluoro-2-((4-(4-methylpiperazin-1-yl)phenyl)amino)quinazolin-4-yl)amino)phenyl)acrylamide-resistant human NCI-H1975 cells assessed as effect on body weight at 20 mg/kg/day, ip in presence of ACK1 inhibitor, dasatinib; format: organism-based; conditions: in vivo
[5] = target: Proto-oncogene tyrosine-protein kinase Src (Homo sapiens, UniProt P12931); assay: Inhibition of human wild type partial length Src kinase (L240 to L536 residues) expressed in bacterial expression system assessed as residual activity at 1 uM by KINOMEscan analysis
Chain of Proto-oncogene tyrosine-protein kinase Src (P12931 2-536 limits assumed): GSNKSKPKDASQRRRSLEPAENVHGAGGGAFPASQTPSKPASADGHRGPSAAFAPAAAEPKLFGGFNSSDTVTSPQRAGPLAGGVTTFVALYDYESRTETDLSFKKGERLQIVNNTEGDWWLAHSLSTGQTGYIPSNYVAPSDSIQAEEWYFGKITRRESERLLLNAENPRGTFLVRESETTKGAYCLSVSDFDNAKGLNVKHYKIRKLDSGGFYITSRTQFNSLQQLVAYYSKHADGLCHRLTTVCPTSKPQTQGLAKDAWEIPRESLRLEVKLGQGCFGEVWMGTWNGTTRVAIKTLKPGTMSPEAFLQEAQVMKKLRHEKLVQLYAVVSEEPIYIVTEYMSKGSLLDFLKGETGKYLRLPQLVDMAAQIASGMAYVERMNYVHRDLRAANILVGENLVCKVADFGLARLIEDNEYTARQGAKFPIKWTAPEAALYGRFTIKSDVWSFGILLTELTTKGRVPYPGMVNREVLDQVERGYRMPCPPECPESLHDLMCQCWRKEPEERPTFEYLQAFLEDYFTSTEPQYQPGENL

[6] = Selectivity ratio of IC50 for cytotoxicity against human A-431 cells harboring wild type EGFR to IC50 for antiproliferative activity against human NCI-H1975 cells harboring EGFR L858R/T790M mutant; format: toxicity, cell-based; conditions: read-out: Ratio IC50
[7] = system: Epidermal growth factor receptor (Homo sapiens), P00533 [UNDEFINED MUTATION]; assay: Inhibition of EGFR exon del19 mutant in human HCC827 cells assessed as inhibition of EGF-induced EGFR phosphorylation at Tyr1068 residue at 1 uM pretreated with compound for 4 hrs followed by incubation with EGF for 10 mins by western blot analysis; format: cell-based; conditions: time 250.0 min
Chain of Epidermal growth factor receptor (Homo sapiens), P00533 [UNDEFINED MUTATION] (P00533 whole entry, looked up, stated change not applied): as the sequence (P00533 whole entry) above

NCI-H1975 [8] = assay: Antitumor activity against human NCI-H1975 cells xenografted in BALB/c mouse assessed as inhibition of tumor burden at 20 mg/kg/day, ip; format: functional, organism-based
NCI-H1975 [9] = assay: Induction of apoptosis in human NCI-H1975 cells assessed as induction of PARP cleavage pretreated with compound for 4 hrs followed by incubation with EGF for 10 mins by western blot analysis; format: functional, cell-based; conditions: dose 0.1-10 µM, time 250.0 min
[10] = system: Epidermal growth factor receptor (Homo sapiens), P00533 [L858R,T790M]; assay: Inhibition of EGFR L858R/T790M mutant in N-(3-((6-Fluoro-2-((4-(4-methylpiperazin-1-yl)phenyl)amino)quinazolin-4-yl)amino)phenyl)acrylamide-resistant human NCI-H1975 cells assessed as inhibition of EGF-induced AKT phosphorylation at Ser473 residue pretreated with compound and ACK1 inhibitor, Bosutinib for 4 hrs followed by incubation with EGF for 10 mins by western blot analysis; format: cell-based; conditions: time 250.0 min
Chain of Epidermal growth factor receptor (Homo sapiens), P00533 [L858R,T790M] (P00533 whole entry T790M/L858R, looked up): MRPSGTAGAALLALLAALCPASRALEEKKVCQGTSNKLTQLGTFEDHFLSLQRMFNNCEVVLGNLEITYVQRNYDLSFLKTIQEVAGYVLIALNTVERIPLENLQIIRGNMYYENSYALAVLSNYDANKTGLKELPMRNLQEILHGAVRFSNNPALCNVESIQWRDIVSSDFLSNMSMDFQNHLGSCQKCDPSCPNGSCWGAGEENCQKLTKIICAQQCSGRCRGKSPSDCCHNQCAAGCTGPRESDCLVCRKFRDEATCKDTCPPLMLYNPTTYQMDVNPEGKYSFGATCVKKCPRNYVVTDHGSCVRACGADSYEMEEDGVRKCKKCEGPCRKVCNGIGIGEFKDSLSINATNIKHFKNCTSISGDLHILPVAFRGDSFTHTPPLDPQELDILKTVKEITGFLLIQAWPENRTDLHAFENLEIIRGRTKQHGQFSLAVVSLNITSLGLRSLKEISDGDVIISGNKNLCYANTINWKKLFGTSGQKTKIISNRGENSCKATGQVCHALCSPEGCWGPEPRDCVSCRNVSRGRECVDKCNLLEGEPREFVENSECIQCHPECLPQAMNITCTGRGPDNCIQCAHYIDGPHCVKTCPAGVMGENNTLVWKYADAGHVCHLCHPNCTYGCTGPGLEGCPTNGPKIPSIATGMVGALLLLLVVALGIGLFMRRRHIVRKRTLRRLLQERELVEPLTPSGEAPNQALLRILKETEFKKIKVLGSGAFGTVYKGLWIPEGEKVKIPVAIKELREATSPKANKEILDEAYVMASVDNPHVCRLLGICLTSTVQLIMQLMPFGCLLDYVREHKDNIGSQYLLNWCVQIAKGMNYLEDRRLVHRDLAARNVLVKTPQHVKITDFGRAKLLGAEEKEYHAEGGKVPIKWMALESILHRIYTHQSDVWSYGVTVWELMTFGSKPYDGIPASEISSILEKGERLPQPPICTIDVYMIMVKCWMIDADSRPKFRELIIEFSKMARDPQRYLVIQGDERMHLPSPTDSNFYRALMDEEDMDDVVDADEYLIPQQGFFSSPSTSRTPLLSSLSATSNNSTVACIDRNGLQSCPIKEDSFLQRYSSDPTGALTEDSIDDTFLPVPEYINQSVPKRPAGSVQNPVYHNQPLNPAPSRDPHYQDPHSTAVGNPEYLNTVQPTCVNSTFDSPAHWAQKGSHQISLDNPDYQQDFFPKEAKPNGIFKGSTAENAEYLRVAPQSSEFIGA

[11] = target: T1, Epidermal growth factor receptor; assay: Inhibition of wild type EGFR in human A-431 cells assessed as inhibition of EGF-induced Akt phosphorylation at Ser473 residue at 0.1 to 10 uM pretreated with compound for 4 hrs followed by incubation with EGF for 10 mins by western blot analysis; format: toxicity, cell-based; conditions: a-431, 4.167 h, dose 0.1-10 µM, time 250 min
A-431 = assay: Induction of apoptosis in human A-431 cells assessed as induction of caspase-3 cleavage at 0.1 to 10 uM pretreated with compound for 4 hrs followed by incubation with EGF for 10 mins by western blot analysis; format: toxicity, cell-based; conditions: a-431, 4.167 h, dose 0.1-10 µM, time 250 min
NCI-H1975 [12] = assay: Inhibition of cell migration in human NCI-H1975 cells incubated for 48 hrs by scratch wound healing assay; format: functional, cell-based; conditions: dose 0.1-10 µM
Mus musculus [13] = assay: In vivo inhibition of EGFR L858R/T790M mutant in ip dosed NCI-H1975 cells xenografted BALB/c mouse assessed as inhibition of EGFR phosphorylation at Tyr1068 residue in tumor by immunoblot analysis; format: functional, organism-based; conditions: dose 5-20 mg/kg/day
[14] = Toxicity in BALB/c mouse xenografted with human NCI-H1975 cells assessed as change in lung morphological changes at 5 to 20 mg/kg/day, ip by hematoxylin-eosin staining based analysis; format: organism-based; conditions: in vivo, dose 5-20 mg/kg/day
[15] = Toxicity in BALB/c mouse xenografted with N-(3-((6-Fluoro-2-((4-(4-methylpiperazin-1-yl)phenyl)amino)quinazolin-4-yl)amino)phenyl)acrylamide-resistant human NCI-H1975 cells assessed as changes in liver morphological changes at 20 mg/kg/day, ip in presence of ACK1 inhibitor, dasatinib by hematoxylin-eosin staining based analysis; format: organism-based; conditions: in vivo
[16] = target: T1, Epidermal growth factor receptor; assay: Inhibition of wild type EGFR in human A-431 cells assessed as inhibition of EGF-induced EGFR phosphorylation at Tyr1068 residue at 0.1 to 10 uM pretreated with compound for 4 hrs followed by incubation with EGF for 10 mins by western blot analysis; format: toxicity, cell-based; conditions: a-431, 4.167 h, dose 0.1-10 µM, time 250 min
[17] = target: T2, Tyrosine-protein kinase Tec (Homo sapiens, UniProt P42680); assay: Inhibition of human wild type partial length TEC kinase (L341 to D620 residues) expressed in bacterial expression system by KINOMEscan analysis
T2 sequence (P42680 whole entry): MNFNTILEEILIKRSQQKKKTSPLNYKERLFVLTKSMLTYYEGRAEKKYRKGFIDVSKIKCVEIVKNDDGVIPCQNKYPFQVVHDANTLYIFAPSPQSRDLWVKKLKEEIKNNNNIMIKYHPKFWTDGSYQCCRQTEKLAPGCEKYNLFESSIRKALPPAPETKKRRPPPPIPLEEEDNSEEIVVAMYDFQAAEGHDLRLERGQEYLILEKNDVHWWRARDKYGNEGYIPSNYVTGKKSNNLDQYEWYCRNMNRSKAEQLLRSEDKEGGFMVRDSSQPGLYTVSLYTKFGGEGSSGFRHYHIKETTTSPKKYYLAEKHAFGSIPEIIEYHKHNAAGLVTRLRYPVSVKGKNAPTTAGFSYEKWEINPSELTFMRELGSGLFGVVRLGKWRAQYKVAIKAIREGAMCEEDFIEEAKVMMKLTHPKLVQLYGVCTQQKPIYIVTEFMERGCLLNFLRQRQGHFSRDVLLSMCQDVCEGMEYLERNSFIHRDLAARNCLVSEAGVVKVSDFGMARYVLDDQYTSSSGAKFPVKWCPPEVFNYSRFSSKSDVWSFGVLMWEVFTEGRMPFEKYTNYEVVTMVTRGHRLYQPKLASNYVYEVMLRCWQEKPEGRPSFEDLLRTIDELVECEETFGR

NCI-H1975 [18] = assay: Antitumor activity against human NCI-H1975 cells xenografted in ip dosed BALB/c mouse assessed as decrease in tumor weight; format: functional, organism-based; conditions: dose 5-20 mg/kg/day
[19] = Selectivity ratio of IC50 for cytotoxicity against human A549 cells harboring wild type EGFR to IC50 for antiproliferative activity against human NCI-H1975 cells harboring EGFR L858R/T790M mutant; format: toxicity, cell-based; conditions: read-out: Ratio IC50
[20] = target: T1, Epidermal growth factor receptor; assay: Inhibition of wild type EGFR in human A-431 cells assessed as inhibition of EGF-induced ERK1/2 phosphorylation at 0.1 to 10 uM pretreated with compound for 4 hrs followed by incubation with EGF for 10 mins by western blot analysis; format: toxicity, cell-based; conditions: a-431, 4.167 h, dose 0.1-10 µM, time 250 min
Mus musculus [21] = species on record: Mus musculus; conditions: BALB/c, dose 10.0 mg/kg/day, route po

C=CC(=O)Nc1cccc(Nc2nc(Nc3ccc(N4CCN(C)CC4)cc3)nc3ccc(F)cc23)c1
inhibition (Mus musculus [1]): Active
inhibition (Mus musculus [2]): Active
inhibition (INH) [3]: Not Active
Activity [4]: Non-Toxic
Activity [5]: 20%
selectivity ratio [6]: 130
inhibition [7]: Active
Activity (NCI-H1975 [8]): Active
Activity (NCI-H1975 [9]): Dose-Dependent Effect
inhibition [10]: Active
inhibition (INH) [11]: Not Active
Activity (A-431): Non-Toxic
inhibition (NCI-H1975 [12]): Dose-Dependent Effect
inhibition (Mus musculus [13]): Dose-Dependent Effect
Activity [14]: Non-Toxic
Activity [15]: Non-Toxic
inhibition (INH) [16]: Not Active
pIC50 [17]: 6.29
Activity (NCI-H1975 [18]): Dose-Dependent Effect
selectivity ratio [19]: 211
inhibition (INH) [20]: Not Active

C=CC(=O)Nc1cc(Nc2nccc(-c3cn(C)c4ccccc34)n2)c(OC)cc1N(C)CCN(C)C [OSIMERTINIB]
inhibition (Mus musculus [21]): Active
